According to patent publication US9556228B2 (Universitaet Leipzig, priority 2011, dated 2017):
≈ marks a conversion by molar mass, not a printed value. Entries after “also recorded” stand apart in the source; their conditions may differ. Peptide text beside a SMILES is read from it. * marks the point of attachment. Orn(α-tetramethylguanidino) = CN(C)C(=N[C@@H](CCCN)C(=O)*)N(C)C

Key:
[1] = cited from earlier work
[2] = test system: Pseudomonas aeruginosa DSM 9644; format: cell-based
Experimental: (§1) The minimum inhibitory concentrations (MIC) of the peptides were determined in a double assay of triplicates using a positive control sample (gentamycin) and a negative control sample (0.9% NaCl solution), according to a modified protocol from Wiegand et al. (Wiegand, 2008).
(§2) […] Overnight cultures were adjusted using ⅛ MHB to approximately 1.5×10^7 colony forming units per mL. Of these, 50 μL of peptide solution per well was mixed with 50 μL bacteria solution each to obtain an initial concentration of […] bacteria per well. After 20 hours of incubation at 37′C, the absorption was determined at 595 nm (microplate reader, Wallac Victor3, Perkin Elmer). The minimum inhibitory concentration was identified as the lowest peptide concentration at which no bacterial growth could be detected.
(§3) In the experiment, the antibacterial activity of the peptides according to the invention in relation to the following bacterial strains was analyzed: Pseudomonas aeruginosa PAO1 (wt strain), Pseudomonas aeruginosa DSM 9644, Staphylococcus aureus DSM 1104/ATCC 25923, Staphylococcus aureus ATCC 6247, Escherichia coli UB 1005 (F—, nalA37, metB1) and Escherichia coli ATCC25922.

S. aureus DSM 6247 [3] = format: cell-based, Staphylococcus aureus
E. coli DSM 1103 = format: cell-based, Escherichia coli
Experimental: as §1
(§4) For this purpose, the peptides were dissolved in water and were diluted in a double dilution series with 1/8 MH (eight-fold diluted Mueller-Hinton-Medium—2.6 g/L, Merck) in sterile 96-well, plates (Greiner Bio-One GmbH) in twelve dilution steps from 128 μg/mL to 62.5 ng/mL. Overnight cultures were adjusted using ⅛ MHB to approximately 1.5×10^7 colony forming units per mL. Of these, 50 μL of peptide solution per well was mixed with 50 μL bacteria solution each to obtain an initial concentration of […] bacteria per well. After 20 hours of incubation at 37′C, the absorption was determined at 595 nm (microplate reader, Wallac Victor3, Perkin Elmer). The minimum inhibitory concentration was identified as the lowest peptide concentration at which no bacterial growth could be detected.

E. coli BL21AI = format: cell-based, Escherichia coli
K. pneumoniae DSM 681 = format: cell-based
Experimental: as §1, §2

in vitro = details: for half-life: mouse
Experimental: The serum stability of selected apidaecin derivatives was also measured.

[4] = test system: Escherichia coli ATCC25922; format: cell-based
S. aureus DSM 6247 [5] = format: cell-based, Staphylococcus aureus; remark: listed apart in the source
Experimental: as §1, §4, §3

[6] = test system: Pseudomonas aeruginosa (luminescent strain); assay: Substitution analysis of apidaecin 1b by peptide array, bioluminescence assay; format: cell-based; details: FIG. 1, luminescence, P. aeruginosa
Experimental: To optimize the antimicrobial activity of apidaecin 1b, a substitution analysis was carried out using this peptide (according to SEQ ID No. 2). The substitution library was synthesized by means of SPOT synthesis, and was analyzed for antibacterial activity against Pseudomonas aeruginosa by means of bioluminescence assay.
The SPOT synthesis of the peptide libraries was carried out on Whatman 50 filter paper (Sigma-Aldrich, Germany) measuring 19×29 cm by means of the Fmoc method and a SPOT synthesizer (Intavis AG, Germany) (according to Reineke U et al. 2001). The luminescence screening method that was used is based on the publication by Hilpert and Hancock (Hilpert, 2007). The peptides synthesized on the membrane were split off and the peptide spots were punched out of the peptide membrane using a hole punch, and were transferred to a 96-well microtiter plate (Corning, USA), after which 200 μL distilled water per well was added. […]
In the second step, the actual screening was performed. […] The incubation suspension (4 vol. % Log C in 100 mM Tris-HCl buffer (pH 7.3) with 40 mM sterile filtered glucose) was then distributed to 96-well plates (VWR, Germany) that are suitable for luminescence, and incubated with a concentration series of the peptide library for 4 hours at 37° C. After incubation, luminescence measurement was performed using a luminometer (Thermo, Finland).

CC[C@H](C)[C@H](NC(=O)[C@@H]1CCCN1C(=O)[C@H](CCCNC(=N)N)NC(=O)[C@@H]1CCCN1C(=O)[C@H](Cc1cnc[nH]1)NC(=O)[C@H](CO)NC(=O)[C@@H](NC(=O)[C@@H]1CCCN1C(=O)[C@H](CCCNC(=N)N)NC(=O)[C@@H]1CCCN1C(=O)[C@H](CO)NC(=O)[C@H](Cc1ccc(O)cc1)NC(=O)[C@@H]1CCCN1C(=O)[C@H](CCCNC(=N)N)NC(=O)[C@@H]1CCCN1C(=O)[C@H](CCCCN)NC(=O)CN)[C@@H](C)O)C(=O)N[C@@H](CCCNC(=N)N)C(=O)N[C@H](C(=O)O)C(C)C [drosocin] (H-GKPRPYSPRPTSHPRPIRV-OH)
breakdown in mammalian serum (25%) [1]: broken down within one hour

gu-ONNRPVYIPRPRPPHPRL-NH2
fragment found (25% mouse serum): gu-O1-R17

CC[C@H](C)[C@H](NC(=O)[C@H](Cc1ccc(O)cc1)NC(=O)[C@@H](NC(=O)[C@@H]1CCCN1C(=O)[C@H](CCCNC(=N)N)NC(=O)[C@H](CC(N)=O)NC(=O)[C@H](Cc1c[nH]c2ccccc12)NC(=O)[C@H](CCCN)N=C(N(C)C)N(C)C)C(C)C)C(=O)N1CCC[C@H]1C(=O)N[C@@H](CCCNC(=N)N)C(=O)N1CCC[C@H]1C(=O)N[C@@H](CCCNC(=N)N)C(=O)N1CCC[C@H]1C(=O)N1CCC[C@H]1C(=O)N[C@@H](Cc1c[nH]cn1)C(=O)N1CCC[C@H]1C(=O)N[C@@H](CCCNC(=N)N)C(=O)N[C@@H](CC(C)C)C(=O)O [compound 85] ({Orn(α-tetramethylguanidino)}-WNRPVYIPRPRPPHPRL-OH; N-terminus and C-terminus assumed)
MIC P. aeruginosa DSM 9644 TSB [2]: 8 to 16 µg/mL | MIC P. aeruginosa PAO DSM 9644 [2]: 16 µg/mL (≈ 6.77 µM) | MIC S. aureus DSM 6247 MHB (S. aureus DSM 6247 [3]): 4 µg/mL (≈ 1.69 µM) | MIC E. coli DSM 1103 (E. coli DSM 1103): 4 µg/mL (≈ 1.69 µM) | MIC E. coli BL21AI TSB (E. coli BL21AI): 2 µg/mL (≈ 0.846 µM) | MIC K. pneumoniae DSM 681 TSB (K. pneumoniae DSM 681): 2 µg/mL (≈ 0.846 µM) | half-life (in vitro; 100% mouse serum): 237 ± 15 min | MIC E. coli ATCC 25922 TSB [4]: 4 µg/mL (≈ 1.69 µM) | MIC S. aureus DSM 6247 (S. aureus DSM 6247 [5]): 16 µg/mL (≈ 6.77 µM)

gu-ONNRPVYIPRPRPPHPRL-OH
fragment found (100% mouse serum): gu-O1-R17

gu-OWNRPVYIPRPRRPHPRL-OH
fragment found (100% mouse serum): gu-O1-R12 (Api341 analogue)

CC[C@H](C)[C@H](NC(=O)[C@H](Cc1ccc(O)cc1)NC(=O)[C@@H](NC(=O)[C@@H]1CCCN1C(=O)[C@H](CCCNC(=N)N)NC(=O)[C@H](CC(N)=O)NC(=O)[C@H](Cc1c[nH]c2ccccc12)NC(=O)[C@H](CCCN)N=C(N(C)C)N(C)C)C(C)C)C(=O)N1CCC[C@H]1C(=O)N[C@@H](CCCNC(=N)N)C(=O)N1CCC[C@H]1C(=O)N[C@@H](CCCNC(=N)N)C(=O)N[C@@H](CCCNC(=N)N)C(=O)N1CCC[C@H]1C(=O)N[C@@H](Cc1c[nH]cn1)C(=O)N1CCC[C@H]1C(=O)N[C@@H](CCCNC(=N)N)C(=O)N[C@@H](CC(C)C)C(N)=O [compound 89] ({Orn(α-tetramethylguanidino)}-WNRPVYIPRPRRPHPRL-NH2; N-terminus and C-terminus assumed)
MIC P. aeruginosa DSM 9644 TSB [2]: 8 µg/mL (≈ 3.3 µM) | MIC P. aeruginosa PAO DSM 9644 [2]: 4 µg/mL (≈ 1.65 µM) | MIC S. aureus DSM 6247 MHB (S. aureus DSM 6247 [3]): 2 µg/mL (≈ 0.826 µM) | MIC E. coli DSM 1103 (E. coli DSM 1103): 8 µg/mL (≈ 3.3 µM) | MIC E. coli BL21AI TSB (E. coli BL21AI): 8 µg/mL (≈ 3.3 µM) | MIC K. pneumoniae DSM 681 TSB (K. pneumoniae DSM 681): >64 µg/mL | half-life (in vitro; 25% mouse serum): 16 ± 1 min | MIC E. coli ATCC 25922 TSB [4]: 16 µg/mL (≈ 6.61 µM) | MIC S. aureus DSM 6247 (S. aureus DSM 6247 [5]): 8 to 16 µg/mL

native apidaecin sequence that is substituted at position 1 with cysteine: apidaecin 1b (SEQ ID No. 2) substituted at position 1 with cysteine, from the SPOT substitution library (CNNRPVYIPQPRPPHPRL; listed as Apis mellifera)
substitution analysis value (measure of the activity; less than 1 = enhancement relative to native apidaecin) [6]: 0.55

CC[C@H](C)[C@H](NC(=O)[C@H](Cc1ccc(O)cc1)NC(=O)[C@@H](NC(=O)[C@@H]1CCCN1C(=O)[C@H](CCCNC(=N)N)NC(=O)[C@H](CC(N)=O)NC(=O)[C@H](Cc1c[nH]c2ccccc12)NC(=O)[C@H](CCCN)N=C(N(C)C)N(C)C)C(C)C)C(=O)N1CCC[C@H]1C(=O)N[C@@H](CCCNC(=N)N)C(=O)N1CCC[C@H]1C(=O)N[C@@H](CCCNC(=N)N)C(=O)N[C@@H](CCCNC(=N)N)C(=O)N1CCC[C@H]1C(=O)N[C@@H](Cc1c[nH]cn1)C(=O)N1CCC[C@H]1C(=O)N[C@@H](CCCNC(=N)N)C(=O)N[C@@H](CC(C)C)C(=O)O [compound 87] ({Orn(α-tetramethylguanidino)}-WNRPVYIPRPRRPHPRL-OH; N-terminus and C-terminus assumed)
MIC P. aeruginosa DSM 9644 TSB [2]: 8 µg/mL (≈ 3.3 µM) | MIC P. aeruginosa PAO DSM 9644 [2]: 8 µg/mL (≈ 3.3 µM) | MIC S. aureus DSM 6247 MHB (S. aureus DSM 6247 [3]): 4 µg/mL (≈ 1.65 µM) | MIC E. coli DSM 1103 (E. coli DSM 1103): 8 µg/mL (≈ 3.3 µM) | MIC E. coli BL21AI TSB (E. coli BL21AI): 8 µg/mL (≈ 3.3 µM) | MIC K. pneumoniae DSM 681 TSB (K. pneumoniae DSM 681): 4 to 8 µg/mL | peptide remaining, printed in the column t1/2 100% serum (in vitro; 100% mouse serum, after 2 hours): 0% after | MIC E. coli ATCC 25922 TSB [4]: 8 µg/mL (≈ 3.3 µM) | MIC S. aureus DSM 6247 (S. aureus DSM 6247 [5]): 16 µg/mL (≈ 6.6 µM)

gu-OWNRPVYIPRPRPPHPRL-OH
fragment found (100% mouse serum): gu-O1-R17

gu-OWNRPVYIPRPRRPHPRL-NH2
fragment found (25% mouse serum): gu-O1-R17; also recorded: gu-O1-R12
